Test system: nuclear pores and importin β1
Assay: NEI-associated late endosomes and transfer of EV-derived components into the nucleoplasm after importazole treatment
Assay type: cell-based
Text: Referring to FIGS. 1A, 1B and 1C, illustrated are schematic illustrations of data showing the localization and the tripartite structure of a VOR complex. […] Typically, EVs are transported to late endosomes after their endocytosis, wherein the EVs facilitate intercellular communication in diverse cellular processes.

CC(Nc1nc(N2CCCC2)nc2ccccc12)c1ccccc1 (centres unmarked) [importazole]
transfer of EV-derived components into the nucleoplasm of host cells: inhibition of transfer of EV-derived components into the nucleoplasm of host cells | presence of nuclear envelope invagination (NEI)-associated late endosomes (host cells after importazole treatment): lack of the nuclear envelope invagination (NEI)-associated late endosomes

Source: patent US12527789B2, “Inhibition of a tripartite VOR protein complex in multicellular organisms” (TECHNISCHE UNIVERSITÄT DRESDEN, priority 2018, dated 2026)
